Measurements as given in the NIST ThermoML archive (doi:10.1021/je060271a).

Details: 303.15 K, Liquid, Vibrating tube method

CCCCC(=O)OCC(COC(=O)CCCC)(COC(=O)CCCC)COC(=O)CCCC [pentaerythritol tetrapentanoate]
Details	mass density [kg/m3]
981.39 kPa	1011.5
983.3 kPa	1011.5
985.21 kPa	1011.5
987.46 kPa	1011.4
989.21 kPa	1011.5
990.77 kPa	1011.5
992.34 kPa	1011.5
994.41 kPa	1011.4
996.16 kPa	1011.4
998.06 kPa	1011.5
1000.1 kPa	1011.3
1002.1 kPa	1011.3
1004.3 kPa	1011.4
1005.9 kPa	1011.4
1007.8 kPa	1011.4
1009.4 kPa	1011.5
1011.3 kPa	1011.5
1014 kPa	1011.5
1015.8 kPa	1011.5
1017.3 kPa	1011.5
1019.2 kPa	1011.5
1021.5 kPa	1011.4
1023.4 kPa	1011.5
1025.3 kPa	1011.5
1027.4 kPa	1011.6
1029.5 kPa	1011.5
1031.2 kPa	1011.6
1033.5 kPa	1011.5
1035.6 kPa	1011.5
1036.8 kPa	1011.4
1039.1 kPa	1011.5
1041.1 kPa	1011.6
1042.9 kPa	1011.6
1045 kPa	1011.5
1047.6 kPa	1011.6
1049.5 kPa	1011.5
1051.4 kPa	1011.4
1053.7 kPa	1011.5
1055.7 kPa	1011.5
1058 kPa	1011.5
1059.7 kPa	1011.5
1062.2 kPa	1011.5
1064.4 kPa	1011.5
1066.7 kPa	1011.6
1068.7 kPa	1011.5
1071 kPa	1011.5
1072.9 kPa	1011.6
1075.2 kPa	1011.5
1077.2 kPa	1011.5
1078.8 kPa	1011.5
1081.6 kPa	1011.5
1083.8 kPa	1011.5
1085.9 kPa	1011.5
1088 kPa	1011.6
1090.6 kPa	1011.6
1092.7 kPa	1011.6
1095 kPa	1011.5
1097.4 kPa	1011.5
1099.5 kPa	1011.5
1101.7 kPa	1011.5
1104 kPa	1011.6
1106.4 kPa	1011.5
1108.7 kPa	1011.5
1111.1 kPa	1011.5
1113.4 kPa	1011.5
1116 kPa	1011.5
1117.9 kPa	1011.5
1120.7 kPa	1011.6
1122.8 kPa	1011.6
1124.8 kPa	1011.5
1127.3 kPa	1011.5
1129.7 kPa	1011.5
1132.3 kPa	1011.6
1134.6 kPa	1011.7
1137.5 kPa	1011.5
1139.8 kPa	1011.6
1141.8 kPa	1011.5
1144.1 kPa	1011.7
1147.1 kPa	1011.4
1149.3 kPa	1011.6
1151.6 kPa	1011.6
1153.8 kPa	1011.5
1156.6 kPa	1011.6
1159 kPa	1011.6
1162.2 kPa	1011.6
1164.3 kPa	1011.8
1166.9 kPa	1011.6
1169.3 kPa	1011.6
1171.7 kPa	1011.7
1174.3 kPa	1011.6
1176.6 kPa	1011.5
1179.2 kPa	1011.6
1182 kPa	1011.6
1184.7 kPa	1011.6
1187.2 kPa	1011.7
1190.1 kPa	1011.7
1192.6 kPa	1011.7
1195.2 kPa	1011.6
1198.1 kPa	1011.6
1200.7 kPa	1011.6
1203.2 kPa	1011.6
1206.3 kPa	1011.6
1208.5 kPa	1011.6
1211.3 kPa	1011.6
1213.9 kPa	1011.6
1216.9 kPa	1011.7
1219.5 kPa	1011.7
1222.1 kPa	1011.6
1224.7 kPa	1011.7
1227.8 kPa	1011.7
1230.6 kPa	1011.7
1233.4 kPa	1011.6
1236.1 kPa	1011.6
1239.1 kPa	1011.7
1241.9 kPa	1011.6
1244.7 kPa	1011.6
1248 kPa	1011.6
1250.6 kPa	1011.7
1253.5 kPa	1011.6
1256.1 kPa	1011.6
1259.1 kPa	1011.6
1262 kPa	1011.6
1265 kPa	1011.7
1268.1 kPa	1011.6
1271 kPa	1011.6
1274 kPa	1011.7
1277 kPa	1011.6
1279.4 kPa	1011.6
1283 kPa	1011.7
1286 kPa	1011.7
1289.1 kPa	1011.6
1292.6 kPa	1011.7
1296 kPa	1011.7
1299.7 kPa	1011.6
1302.8 kPa	1011.7
1305.6 kPa	1011.7
1308.5 kPa	1011.6
1312.2 kPa	1011.7
1315 kPa	1011.8
1318.1 kPa	1011.7
1321.4 kPa	1011.7
1324.3 kPa	1011.7
1327.8 kPa	1011.6
1331.1 kPa	1011.7
1334.2 kPa	1011.8
1337.4 kPa	1011.6
1340.5 kPa	1011.6
1343.8 kPa	1011.7
1347.3 kPa	1011.8
1350.2 kPa	1011.7
1354.2 kPa	1011.7
1357.2 kPa	1011.6
1360.5 kPa	1011.7
1363.6 kPa	1011.7
1367.4 kPa	1011.7
1371.1 kPa	1011.7
1373.8 kPa	1011.7
1377.5 kPa	1011.7
1381.3 kPa	1011.8
1384.2 kPa	1011.7
